Columns and labels:
[1] = system: E. coli (strain RS 218); test: Preliminary clotting assay (E. coli-mediated clotting of C. albicans cells); assay type: cell-based; details: minimal concentration that prevents clotting of C. albicans cells by E. coli RS 218; triplicate
Method: Overnight cultures of C. albicans (strain ATCC 60193) and E. coli (strain RS 218) are prepared by suspending colony material from agar plates in 10 ml trypticase soy broth (TSB) each and incubated for 16-18 h at 37° C., the culture of E. coli without shaking, but the culture of C. albicans with agitation on a horizontal shaker at 200 rpm. The cells of 2 ml of each culture are washed twice with 1 ml phosphate buffered saline (PBS) by centrifugation (10 min at 2500×g), discarding the supernatant and re-suspension of the cell pellet in fresh PBS. After the last washing step, the optical density at 600 nm is measured and adjusted to 5.0 for C. albicans (corresponding to approx. 5×10^7 viable cells/ml) and to 3.0 for E. coli (corresponding to approx. 5×10^9 viable cells/ml). […] Each test well is supplied with 33 μl PBS or the test solution of the desired concentration, and 33 μl of E. coli suspension is added and mixed by slightly tapping the plate. After 5 min 33 μl of C. albicans suspension is added to give a total volume of 100 μl per well. As a negative clumping control, one well is left without addition of E. coli. The plate is incubated for 20 min at 37° C. on a horizontal shaker at 150 rpm and the cells are allowed to settle for 10 min at r.t. before the wells are inspected with the help of a magnifier for visual clumps. For each substance the minimal concentration that prevents clotting of C. albicans cells is noted. Each experiment is performed in triplicate.

[2] = system: GFP tagged E. coli strain UTI89; test: Flow cytometry inhibition assay (adherence of GFP tagged UTI89 to bladder cell line 5637); assay type: cell-based; details: for IC50: Escherichia coli; for rIC50: ratio of IC50 to IC50 of reference HM, cell line 5637
Method: The GFP tagged E. coli strain UTI89 is statically incubated in Luria-Bertani broth for 24 h, washed twice and adjusted to an optical density at 600 nm (OD600) between 2.0 and 3.0. The human epithelial bladder carcinoma cell line 5637 was grown in RPMI 1640 medium, supplemented with 10% fetal calf serum (FCS), 100 U/ml penicillin and 100 μg/ml streptomycin at 37° C., 5% CO2 in 24-well plates. Cells were infected with 200 μl bacterial suspension (multiplicity of infection of 1:50 (cell:bacteria)), premixed with 25 μl of antagonists at different concentrations. To homogenize the infection, plates were centrifuged at room temperature for 3 min at 600 g. After an incubation of 1.5 h at 37° C., infected cells were washed four times with RPMI 1640 medium and suspended in ice-cold PBS for 5-20 min. Samples were measured with a CyAn ADP flow cytometer (Becton Dickinson, San Jose, Calif.) and analyzed by gating on the eukaryotic cells based on forward (FSC) and side scatter (SSC). A total of 10^4 cells were measured per sample. Data were acquired in a linear mode for the SSC and logarithmic mode for FSC and the green fluorescent channel FL1-H (e.g. GFP). The mean fluorescence intensity (MFI) of FL1-H was counted as a surrogate marker for the adherence of bacteria. Quantification of adhesion was evaluated with the FlowJo software 9.0.1 (Tree Star, Inc., Ashland, Oreg., USA). IC50 values were determined by plotting the concentration of the antagonist in a logarithmic mode versus the MFI and by fitting the curve with the prism software (GraphPad, inhibition curve, variable slope). The relative IC50 (rIC50) is the ratio of the IC50 of the test compound to the IC50 of the reference compound HM (n-heptyl α-D-mannopyranoside.

[3] = system: E. coli strain UTI89; test: Aggregometer assay (disaggregation of E. coli UTI89 from guinea pig erythrocytes); assay type: cell-based; details: relative to heptyl α-D-mannopyranoside (rIC50=1)
Method: In analogy to N. Firon, I. Ofek, N. Sharon, Biochem. Biophys. Res. Comm. 1982, 105, 1426-1432, the following assay is conducted: E. coli strain UTI89 is statically incubated in Luria-Bertani broth for 24 h, washed twice and adjusted to an optical density at 600 nm (OD600) of 4.0. The percentage of aggregation of UTI89 to guinea pig erythrocytes (GPE) is quantitatively measured using an APACT 4004 aggregometer (Endotell AG, Allschwil, Switzerland) at 740 nm, 37° C. under stirring at 1000 rpm. For calibration, first the protein poor plasma (PPP) is measured using PBS 1% and set as 100% aggregation, followed by the protein rich plasma (PRP) using GPE at an OD600 of 4.0, set as 0% aggregation. After calibration, the measurement is initiated using 250 μL GPE and 50 μL bacterial suspension. Following the aggregation phase of 600 s, 25 μL of the antagonists at different concentrations are added and disaggregation is monitored over 1400 s. The FimH-deleted mutant of E. coli UTI89 is used to proof FimH-specific GPE agglutination. For evaluation, the area under the disaggregation curve (AUC) is calculated and compared to the reference, heptyl α-D-mannopyranoside (see Table 2). The activities are reported as rel. IC50 (rIC50) with heptyl α-D-mannopyranoside as reference compound (rIC50=1).

[4] = In vivo pharmacokinetics, single dose, urine and plasma sampling; design: species or system mouse; details: single i.v. application of 50 mg/kg, applied antagonist detected
Method: The aim is the identification of FimH antagonists suitable for intravenous (i.v.) or preferably peroral (p.o.) applications. Before infection studies in a mouse disease model could be performed, the in vivo pharmacokinetic parameters (Cmax, AUC) had to be determined, to ensure the antagonists availability in the target organ (bladder). Single-dose pharmacokinetic studies were performed by i.v. and p.o. application of the FimH antagonists at a concentration of 50 mg/kg followed by urine and plasma sampling. […] Antagonists were applied i.v. by injection into the tail vein and p.o. using a gavage followed by blood and urine sampling (10 μL) after 6 min, 30 min, 1 h, 2 h, 4 h, 6 h, 8 h and 24 h. Before analysis, proteins in blood and urine samples were precipitated using methanol and centrifuged for 11 min at 13,000 rpm. The supernatant was transferred into a 96-well plate and analyzed by LC-MS.

With `OC[C@H]1O[C@H](Oc2ccc(-n3ccc4ccccc43)cc2F)[C@@H](O)[C@@H](O)[C@@H]1O` [Compound 32, 2-Fluoro-4-(indol-1-yl)phenyl α-D-mannopyranoside] the “Average conc. to prevent clotting” value [1] was 5.556 µM.
With `OC[C@H]1O[C@H](Oc2ccc(-n3ccc4ccccc43)cc2Cl)[C@@H](O)[C@@H](O)[C@@H]1O` [Compound 29a, 2-Chloro-4-(indol-1-yl)phenyl α-D-mannopyranoside] the “Average conc. to prevent clotting” value [1] was 1.111 µM.
With `O=[N+]([O-])c1ccc2c(ccn2-c2ccc(O[C@H]3O[C@H](CO)[C@@H](O)[C@H](O)[C@@H]3O)c(F)c2)c1` [Compound 34, 2-Fluoro-4-(5-nitroindol-1-yl)phenyl α-D-mannopyranoside] the “Average conc. to prevent clotting” value [1] was 0.833 µM.
With `CCCCCCCO[C@H]1O[C@H](CO)[C@@H](O)[C@H](O)[C@@H]1O` [HM, heptyl α-D-mannopyranoside, reference compound] the “Average conc. to prevent clotting” value [1] was 42 µM, the IC50 [2] was 3.9 ± 1.6 µM and the rIC50 [2] was 1. The “rIC50 (measured in the aggregometer assay)” value [3] was 1, the AUC0-24 i.v. ([4]; plasma) was 34.3 ± 33.3 µg·h/mL and the AUC0-24 i.v. ([4]; urine) was 2469.3 ± 636.4 µg·h/mL.
In the case of `O=[N+]([O-])c1ccc2c(ccn2-c2ccc(O[C@H]3O[C@H](CO)[C@@H](O)[C@H](O)[C@@H]3O)c(Cl)c2)c1` [Compound 29b, 2-Chloro-4-(5-nitroindol-1-yl)phenyl α-D-mannopyranoside], the “Average conc. to prevent clotting” value [1] is reported as 0.556 µM, the IC50 [2] is reported as 0.59 ± 0.045 µM and the rIC50 [2] is reported as 0.15.
